# Experiments:
# [1] = test system: antibodies raised against an immunogen having the structure shown in FIG. 29; experiment: Fluorescence polarization immunoassay cross-reactivity in drug-free normal human urine, tracer of FIG. 30; assay type: binding, sheep; details: for % CR / Conc. Found: tracer FIG. 30; for amount of the test compound found in the resulting human urine: 200 ng/mL added to drug-free urine, secobarbital standard
# Procedure: (§1) The antibodies of the present invention are prepared by eliciting a response in sheep to the immunogens described supra. The immunogen is administered to animals or to in vitro cultures of immunocompetent cells by a series of innoculations, in a manner well known to those skilled in the art.
# (§2) The tracer formulation presently preferred is 150 nanomolar tracer in: 0.1 molar phosphate buffer at pH 6.2; 5% sodium 5-sulfosalicylate; 0.1% sodium azide; and 0.01% bovine gamma-globulin. The antiserum formulation comprises sheep serum diluted with: 0.1 molar tris buffer at pH 7.5; 0.1% sodium azide; 0.1% bovine gamma-globulin; and 2% ethylene glycol (volume/volume). The dilution buffer comprises: 0.1 molar sodium phosphate at pH 7.5; 0.1% sodium azide; and 0.01% bovine gamma-globulin. The pretreatment solution comprises: 0.01% bovine gamma-globulin; 0.1 molar tris buffer at pH 7.5; 0.1% sodium azide; and 10 mg/mL riboflavin binding protein.
# (§3) A minimum of fifty microliters of urine is required. The calibrators, controls, or unknown samples are pipetted directly into the sample well of the TDx® or ADx® sample cartridge. […] The assay procedure from this point is fully automated.
# (§4) If a manual assay is being performed, then the sample is mixed with the pretreatment solution in dilution buffer and a background reading is taken. The tracer and antibody are then mixed into the test solution. After incubation, a fluorescence polarization reading is taken.
# (§5) The net fluorescence polarization value of each calibrator, control or sample is determined and is printed on the output tape of an instrument such as the Abbott TDx® Analyzer. […] The concentration of each control or sample is read off the stored calibration curve and printed on the output tape.
# Cross-reactivity was tested by the method of the present invention for the commonly-used barbiturates. In each case, compounds were assayed on the Abbott Laboratories+ TDx® Clinical Analyzer or the ADx® Drugs of Abuse System after adding a known quantity (200 ng/mL) of the barbiturate test compound to drug-free normal human urine.
# (§6) The five columns in Tables 4(a) and 4(b) indicate the same information as is described above for Table 3(a).
# [2] = test system: antibodies raised against an immunogen having the structure shown in FIG. 29; experiment: Fluorescence polarization immunoassay cross-reactivity, tracer of FIG. 31; assay type: binding, sheep; details: tracer FIG. 31
# Procedure: as §1
# [3] = test system: antibodies raised against an immunogen having the structure shown in FIG. 28; experiment: Fluorescence polarization immunoassay cross-reactivity in drug-free normal human urine, tracer of FIG. 5; assay type: binding, sheep; details: for amount of the test compound found in the resulting human urine: 200 ng/mL added to drug-free urine, secobarbital standard
# Procedure: as §1, §2, §3, §4, §5
# Cross-reactivity was tested by the method of the present invention for the commonly-used barbiturates. […]
# The five columns indicate the following information:
# In other words, when 200 ng of secobarbital were added to drug-free normal human urine, approximately 200 ng of secobarbital were detected in the resulting urine sample. Thus, the closer the factor is to 1.0, the more accurate the assay is with respect to the particular test compound analyzed.
# The percent cross-reactivity value presented in column five was obtained by the following mathematical formula: [formula]
# as §6
# [4] = Long-term tracer stability: polarization and net intensity after storage (Tables 2(a), 2(b)); assay type: physicochemical
# Text: The data presented in Tables 2(a) and 2(b) below indicate that a tracer which has an ethylene (—CH═CH—) linkage group between the fluorescein and the ligand component of the tracer remains stable at varied temperatures for a period of at least one and one half years. While a tracer having the chemical structure shown in FIG. 5 was employed to generate the data presented in Table 2(a), a tracer having the chemical structure shown in FIG. 30 was employed to generate the data presented in Table 2(b).
# [5] = 200 ng/mL added, listed as secobarbital
molecule,measurement,setting,value
C=CCC1(c2ccccc2)C(=O)NC(=O)NC1=O [Alphenal],% CR,[1]; Conc. Added 1200 ng/mL,94%
same,Conc. Found,[1]; Conc. Added 1200 ng/mL,1130 ng/mL
same,% CR,[2]; Conc. Added 1200 ng/mL,>167%
CCC1(c2ccc(N)cc2)CCC(=O)NC1=O (stereo not drawn) [Aminoglutethimide],amount of the test compound found,[1]; 1 μg/mL added,ND (None detected: Concentration less than the sensitivity of the assay (60 ng/mL))
same,amount of the test compound found,[1]; 10 μg/mL added,117 ng/mL
same,factor,[1]; 10 μg/mL added,0.00117
same,percent cross reactivity,[1]; 10 μg/mL added,1.17%
same,amount of the test compound found,[1]; 100 μg/mL added,412 ng/mL
same,factor,[1]; 100 μg/mL added,0.00041
same,percent cross reactivity,[1]; 100 μg/mL added,0.41%
CCC1(CCC(C)C)C(=O)NC(=O)NC1=O [Amobarbital],factor which overestimates or underestimates the compound assayed for,[3]; 200 ng/mL added,1.55
same,percent cross reactivity,[3]; 200 ng/mL added,155%
same,amount of the test compound found in the resulting human urine,[3],310 ng/mL
same,factor which overestimates or underestimates the compound assayed for,[1]; 200 ng/mL added,0.43
same,percent cross reactivity,[1]; 200 ng/mL added,43%
same,amount of the test compound found in the resulting human urine,[1],85 ng/mL
same,% CR,[1]; Conc. Added 1200 ng/mL,41%
same,Conc. Found,[1]; Conc. Added 1200 ng/mL,490 ng/mL
same,% CR,[2]; Conc. Added 1200 ng/mL,73%
same,Conc. Found,[2]; Conc. Added 1200 ng/mL,870 ng/mL
C=CCC1(C(C)C)C(=O)NC(=O)NC1=O [Aprobarbital],factor which overestimates or underestimates the compound assayed for,[1]; 200 ng/mL added,0.62
same,percent cross reactivity,[1]; 200 ng/mL added,62%
same,amount of the test compound found in the resulting human urine,[1],123 ng/mL
same,% CR,[1]; Conc. Added 1200 ng/mL,77%
same,Conc. Found,[1]; Conc. Added 1200 ng/mL,920 ng/mL
same,% CR,[2]; Conc. Added 1200 ng/mL,139%
same,Conc. Found,[2]; Conc. Added 1200 ng/mL,1670 ng/mL
C=CCC1(CC(=C)Br)C(=O)NC(=O)NC1=O [Brallobarbital],factor which overestimates or underestimates the compound assayed for,[1]; 200 ng/mL added,0.94
same,percent cross reactivity,[1]; 200 ng/mL added,94%
same,amount of the test compound found in the resulting human urine,[1],188 ng/mL
same,% CR,[1]; Conc. Added 1200 ng/mL,117%
same,Conc. Found,[1]; Conc. Added 1200 ng/mL,1400 ng/mL
same,% CR,[2]; Conc. Added 1200 ng/mL,159%
same,Conc. Found,[2]; Conc. Added 1200 ng/mL,1910 ng/mL
CCC(C)C1(CC)C(=O)NC(=O)NC1=O (stereo not drawn) [Butabarbital],factor which overestimates or underestimates the compound assayed for,[1]; 200 ng/mL added,2.24
same,percent cross reactivity,[1]; 200 ng/mL added,224%
same,amount of the test compound found in the resulting human urine,[1],489 ng/mL
same,% CR,[1]; Conc. Added 1200 ng/mL,>167%
same,% CR,[2]; Conc. Added 1200 ng/mL,>167%
C=CCC1(CC(C)C)C(=O)NC(=O)NC1=O [Butalbital],factor which overestimates or underestimates the compound assayed for,[3]; 200 ng/mL added,1.00
same,percent cross reactivity,[3]; 200 ng/mL added,100%
same,amount of the test compound found in the resulting human urine,[3],201 ng/mL
same,factor which overestimates or underestimates the compound assayed for,[1]; 200 ng/mL added,1.13
same,percent cross reactivity,[1]; 200 ng/mL added,113%
same,amount of the test compound found in the resulting human urine,[1],227 ng/mL
same,% CR,[1]; Conc. Added 1200 ng/mL,167%
same,Conc. Found,[1]; Conc. Added 1200 ng/mL,2000 ng/mL
same,% CR,[2]; Conc. Added 1200 ng/mL,>167%
C=CCC1(C2C=CCC2)C(=O)NC(=O)NC1=O (stereo not drawn) [Cyclopentobarbital],% CR,[1]; Conc. Added 1200 ng/mL,>167%
same,% CR,[2]; Conc. Added 1200 ng/mL,>167%
CCCC(C)C1(C/C=C/C(=O)NCc2c(O)ccc3c2Oc2cc(O)ccc2C32OC(=O)c3ccccc32)C(=O)NC(=O)NC1=O (stereo not drawn) [FIG. 5],Average Net Intensity,"[4]; 1 Year, 2-8 °C",3161-4615
same,Polarization,"[4]; 1 Year, 2-8 °C",204.85
same,Average Net Intensity,"[4]; 18 Months, 2-8 °C",3304-4798
same,Polarization,"[4]; 18 Months, 2-8 °C",199.29
same,Average Net Intensity,"[4]; Day 0, 2-8 °C",3400-5000
same,Polarization,"[4]; Day 0, 2-8 °C",209.17
same,Average Net Intensity,"[4]; Day 1, 2-8 °C",3290-4733
same,Polarization,"[4]; Day 1, 2-8 °C",206.61
same,Average Net Intensity,"[4]; Day 2, 2-8 °C",3200-4670
same,Polarization,"[4]; Day 2, 2-8 °C",207.07
same,Average Net Intensity,"[4]; Day 3, 2-8 °C",3367-4895
same,Polarization,"[4]; Day 3, 2-8 °C",208.05
same,Average Net Intensity,"[4]; Day 3, 37 °C",3400-4910
same,Polarization,"[4]; Day 3, 37 °C",207.60
same,Average Net Intensity,"[4]; Day 3, 45 °C",3400-4950
same,Polarization,"[4]; Day 3, 45 °C",205.51
same,Average Net Intensity,"[4]; Day 3, −20 °C",3395-4965
same,Polarization,"[4]; Day 3, −20 °C",207.38
same,Average Net Intensity,"[4]; Month 2, 2-8 °C",3282-4777
same,Polarization,"[4]; Month 2, 2-8 °C",207.21
same,Average Net Intensity,"[4]; Month 4, 2-8 °C",3210-4775
same,Polarization,"[4]; Month 4, 2-8 °C",205.59
same,Average Net Intensity,"[4]; Month 8, 2-8 °C",3150-4677
same,Polarization,"[4]; Month 8, 2-8 °C",206.85
same,Average Net Intensity,"[4]; Week 1, 2-8 °C",3400-4900
same,Polarization,"[4]; Week 1, 2-8 °C",208.25
same,Average Net Intensity,"[4]; Week 1, 37 °C",3500-5000
same,Polarization,"[4]; Week 1, 37 °C",202.78
same,Average Net Intensity,"[4]; Week 1, 45 °C",3550-5200
same,Polarization,"[4]; Week 1, 45 °C",200.11
same,Average Net Intensity,"[4]; Week 1, −20 °C",3300-4800
same,Polarization,"[4]; Week 1, −20 °C",208.46
same,Average Net Intensity,"[4]; Week 2, 2-8 °C",3100-4590
same,Polarization,"[4]; Week 2, 2-8 °C",210.41
same,Average Net Intensity,"[4]; Week 2, −20 °C",3180-4635
same,Polarization,"[4]; Week 2, −20 °C",208.85
same,Average Net Intensity,"[4]; Week 4, 2-8 °C",3395-4988
same,Polarization,"[4]; Week 4, 2-8 °C",210.35
CC(C(=O)O)c1cccc(Oc2ccccc2)c1 (stereo not drawn) [Fenoprofen],amount of the test compound found,[3]; 215 μg/mL added,180 ng/mL
same,factor,[3]; 215 μg/mL added,0.00084
same,percent cross reactivity,[3]; 215 μg/mL added,0.084%
same,amount of the test compound found,[3]; 430 μg/mL added,290 ng/mL
same,factor,[3]; 430 μg/mL added,0.00067
same,percent cross reactivity,[3]; 430 μg/mL added,0.067%
same,% CR,[1]; Conc. Added 200 (ng/mL),0.015%
same,Conc. Found,[1]; Conc. Added 200 (ng/mL),30 ng/mL
same,% CR,[2]; Conc. Added 200 (ng/mL),0.02%
same,Conc. Found,[2]; Conc. Added 200 (ng/mL),40 ng/mL
CC(C(=O)O)c1ccc(CC(C)(C)O)cc1 (stereo not drawn) [OH-Ibuprofen],amount of the test compound found,[3]; 1 μg/mL added,ND (None detected: Concentration less than the sensitivity of the assay (60 ng/mL))
same,amount of the test compound found,[3]; 10 μg/mL added,ND (None detected: Concentration less than the sensitivity of the assay (60 ng/mL))
same,amount of the test compound found,[3]; 100 μg/mL added,ND (None detected: Concentration less than the sensitivity of the assay (60 ng/mL))
same,amount of the test compound found,[3]; 1000 μg/mL added,60 ng/mL
same,factor,[3]; 1000 μg/mL added,0.00006
same,percent cross reactivity,[3]; 1000 μg/mL added,0.006%
C=CCC1(C(C)CCC)C(=O)NC(=O)NC1=O (stereo not drawn) [Secobarbital],factor which overestimates or underestimates the compound assayed for,[3]; 200 ng/mL added,1.00
same,percent cross reactivity,[3]; 200 ng/mL added,100%
same,amount of the test compound found in the resulting human urine,[3],200 ng/mL
same,factor which overestimates or underestimates the compound assayed for,[3]; [5],1.0
same,percent cross reactivity,[3]; [5],100%
same,factor which overestimates or underestimates the compound assayed for,[1]; 200 ng/mL added,1.00
same,percent cross reactivity,[1]; 200 ng/mL added,100%
same,amount of the test compound found in the resulting human urine,[1],200 ng/mL
Butobarbital,% CR,[1]; Conc. Added 1200 ng/mL,48%
same,Conc. Found,[1]; Conc. Added 1200 ng/mL,580 ng/mL

# From patent US6472227B1, “Barbiturate assay, tracers, immunogens, antibodies and kit” (Abbott Laboratories, priority 1986, dated 2002)
